# Test results from the supplement of paper PMC10307832.
# What was measured:
# Test in all cases: relative viability (nuclei count vs DMSO), 5 days (fraction); higher = more cells survive
# EHT 1864 + Palbociclib = compound: C1COCCN1CC2=CC(=O)C(=CO2)OCCCCCSC3=C4C=CC(=CC4=NC=C3)C(F)(F)F [EHT 1864] + CC(=O)c1c(C)c2cnc(Nc3ccc(N4CCNCC4)cn3)nc2n(C2CCCC2)c1=O [Palbociclib] (partner 0.5 µM)
# How it was run: (§1)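 One day after seeding in 1536-well plates, lung cancer cell lines were dosed by pin tool. Dosing was either single-drug or a fixed anchor-drug dose plus five library-drug doses (not always all listed) in √10 steps. After 5 days, nuclei were stained in one fix-and-stain step and counted on 4× images, and relative viability is the nuclei count of treated wells over that of vehicle wells, given as the median of duplicate plates.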
# EHT 1864 + Bortezomib = compound: C1COCCN1CC2=CC(=O)C(=CO2)OCCCCCSC3=C4C=CC(=CC4=NC=C3)C(F)(F)F [EHT 1864] + CC(C)C[C@H](NC(=O)[C@H](Cc1ccccc1)NC(=O)c1cnccn1)B(O)O [Bortezomib] (partner 0.002 µM)
# How it was run: as §1
# EHT 1864 + Alpelisib = compound: C1COCCN1CC2=CC(=O)C(=CO2)OCCCCCSC3=C4C=CC(=CC4=NC=C3)C(F)(F)F [EHT 1864] + Cc1nc(NC(=O)N2CCC[C@H]2C(N)=O)sc1-c1ccnc(C(C)(C)C(F)(F)F)c1 [Alpelisib] (partner 2 µM)
# How it was run: as §1
# EHT 1864 + Dasatinib = compound: C1COCCN1CC2=CC(=O)C(=CO2)OCCCCCSC3=C4C=CC(=CC4=NC=C3)C(F)(F)F [EHT 1864] + Cc1nc(Nc2ncc(C(=O)Nc3c(C)cccc3Cl)s2)cc(N2CCN(CCO)CC2)n1 [Dasatinib] (partner 0.075 µM)
# How it was run: as §1
Cell Line,relative viability (EHT 1864 + Palbociclib; first compound 0.04 µM),relative viability (EHT 1864 + Palbociclib; first compound 0.1265 µM),relative viability (EHT 1864 + Palbociclib; first compound 0.4 µM),relative viability (EHT 1864 + Palbociclib; first compound 1.265 µM),relative viability (EHT 1864 + Palbociclib; first compound 4 µM),relative viability (EHT 1864 + Bortezomib; first compound 0.04 µM),relative viability (EHT 1864 + Bortezomib; first compound 0.1265 µM),relative viability (EHT 1864 + Bortezomib; first compound 0.4 µM),relative viability (EHT 1864 + Bortezomib; first compound 1.265 µM),relative viability (EHT 1864 + Bortezomib; first compound 4 µM),relative viability (EHT 1864 + Alpelisib; first compound 0.04 µM),relative viability (EHT 1864 + Alpelisib; first compound 0.1265 µM),relative viability (EHT 1864 + Alpelisib; first compound 0.4 µM),relative viability (EHT 1864 + Alpelisib; first compound 1.265 µM),relative viability (EHT 1864 + Alpelisib; first compound 4 µM),relative viability (EHT 1864 + Dasatinib; first compound 0.04 µM),relative viability (EHT 1864 + Dasatinib; first compound 0.1265 µM),relative viability (EHT 1864 + Dasatinib; first compound 0.4 µM),relative viability (EHT 1864 + Dasatinib; first compound 1.265 µM),relative viability (EHT 1864 + Dasatinib; first compound 4 µM)
LU99A,0.438,0.375,0.364,0.396,0.374,1.06,0.672,1.06,1.25,1.13,0.495,0.381,0.452,0.583,0.54,0.482,0.413,0.613,0.564,0.436
NCI-H1355,0.411,0.357,0.391,0.389,0.414,1.32,0.908,1.12,1.32,1.24,0.766,0.624,0.699,0.856,0.89,0.676,0.535,0.73,0.561,0.725
NCI-H520,0.227,0.212,0.258,0.225,0.231,0.685,0.339,0.629,0.773,0.323,0.967,0.954,0.883,0.889,0.876,0.218,0.171,0.205,0.211,0.192
NCI-H661,0.4,0.389,0.41,0.381,0.352,0.866,0.705,0.769,0.655,0.716,0.596,0.672,0.527,0.465,0.531,0.883,0.828,0.919,0.8,0.725
NCI-H650,0.332,0.256,0.346,0.327,0.325,0.911,–,0.862,0.827,0.914,1.05,–,1.23,1.02,1.09,0.427,0.381,0.427,0.459,0.459
NCI-H647,0.414,0.351,0.451,0.373,0.375,0.808,0.753,0.954,0.934,1.04,1.21,1.04,1.26,0.977,1.18,0.193,0.121,0.168,0.179,0.204
201T,0.345,0.36,0.353,0.307,0.356,1.14,1.04,1.05,1.09,1.09,1.02,1.08,0.977,0.982,1.01,0.563,0.587,0.589,0.473,0.528
NCI-H838,0.208,0.185,0.266,0.223,0.244,0.873,0.47,0.778,0.906,0.614,0.969,0.881,0.988,0.921,0.827,0.207,0.252,0.304,0.277,0.269
SW 1573,0.299,–,0.481,0.416,0.317,1.09,0.923,1.01,0.975,0.674,0.772,0.896,0.737,0.608,0.719,0.516,0.362,0.445,0.538,0.516
LK-2,0.67,–,0.523,0.639,0.588,–,–,–,–,–,1.19,0.972,1.07,1.14,0.499,0.36,–,0.353,0.246,0.257
NCI-H2170,0.381,0.308,0.408,0.356,0.395,–,–,–,–,–,0.751,0.759,0.771,0.793,0.793,0.608,0.579,0.688,0.474,0.563
NCI-H1650,0.375,0.31,0.273,0.378,0.277,0.202,0.205,0.228,0.215,0.202,–,–,–,–,–,–,–,0.36,0.271,0.377
NCI-H596,–,–,–,–,–,0.836,0.637,0.976,1.01,1.05,0.524,0.529,0.506,0.434,0.514,0.701,0.592,0.533,0.554,0.664
NCI-H1793,0.242,0.281,0.315,0.28,0.373,–,–,–,–,–,–,0.635,0.815,0.847,0.7,0.307,–,0.304,–,0.419
NCI-H358,0.14,0.117,0.133,0.135,0.124,–,–,–,–,–,0.798,–,0.877,0.965,0.837,0.215,0.145,0.17,0.174,0.186
SK-MES-1,0.379,0.3,0.356,0.301,0.342,–,–,–,–,–,0.934,0.823,0.884,0.92,0.906,0.427,0.409,0.44,0.423,0.333
NCI-H1563,–,–,–,–,–,0.901,0.853,0.861,0.89,0.751,0.853,1.03,1.04,0.96,0.805,0.437,0.466,0.469,0.43,0.489
EBC-1,–,–,–,–,–,0.56,0.524,0.505,0.509,0.541,0.843,0.697,0.886,0.908,0.881,–,–,–,–,–
Calu-6,–,–,–,–,–,0.97,0.844,0.846,1.11,0.917,0.983,0.932,0.948,1.01,0.904,–,–,–,–,–
HCC-44,0.985,0.999,0.94,0.899,0.918,0.968,0.757,0.812,0.851,0.876,0.801,0.703,0.751,0.695,0.857,–,–,–,–,–
